Reference: the NIST ThermoML archive (doi:10.1016/j.jct.2018.10.006)

Assay: molar heat capacity at constant pressure
Conditions: 101.33 kPa, Crystal 2

O=P([O-])([O-])[O-].[Cs+].[Ni+2] [cesium nickel monophosphate]
Conditions | molar heat capacity at constant pressure [J/K/mol]
5 K, Small (less than 1 g) adiabatic calorimetry | 0.898
6 K, Small (less than 1 g) adiabatic calorimetry | 1.272
6.21 K, Small (less than 1 g) adiabatic calorimetry | 1.255
6.51 K, Small (less than 1 g) adiabatic calorimetry | 1.413
6.82 K, Small (less than 1 g) adiabatic calorimetry | 1.605
7 K, Small (less than 1 g) adiabatic calorimetry | 1.721
7.13 K, Small (less than 1 g) adiabatic calorimetry | 1.788
7.51 K, Small (less than 1 g) adiabatic calorimetry | 1.987
7.97 K, Small (less than 1 g) adiabatic calorimetry | 2.195
8 K, Small (less than 1 g) adiabatic calorimetry | 2.203
8.43 K, Small (less than 1 g) adiabatic calorimetry | 2.444
8.87 K, Small (less than 1 g) adiabatic calorimetry | 2.627
9 K, Small (less than 1 g) adiabatic calorimetry | 2.719
9.32 K, Small (less than 1 g) adiabatic calorimetry | 2.902
9.77 K, Small (less than 1 g) adiabatic calorimetry | 3.176
10 K, Small (less than 1 g) adiabatic calorimetry | 3.351
10.24 K, Small (less than 1 g) adiabatic calorimetry | 3.492
10.72 K, Small (less than 1 g) adiabatic calorimetry | 3.908
11.23 K, Small (less than 1 g) adiabatic calorimetry | 4.299
11.76 K, Small (less than 1 g) adiabatic calorimetry | 4.756
12.55 K, Small (less than 1 g) adiabatic calorimetry | 5.496
13.09 K, Small (less than 1 g) adiabatic calorimetry | 6.119
13.82 K, Small (less than 1 g) adiabatic calorimetry | 6.826
14.55 K, Small (less than 1 g) adiabatic calorimetry | 7.566
15 K, Small (less than 1 g) adiabatic calorimetry | 8.032
15.28 K, Small (less than 1 g) adiabatic calorimetry | 8.431
16.02 K, Small (less than 1 g) adiabatic calorimetry | 9.146
16.77 K, Small (less than 1 g) adiabatic calorimetry | 9.844
17.78 K, Small (less than 1 g) adiabatic calorimetry | 10.73
18.33 K, Small (less than 1 g) adiabatic calorimetry | 11.31
19.12 K, Small (less than 1 g) adiabatic calorimetry | 12.07
19.94 K, Small (less than 1 g) adiabatic calorimetry | 13.03
20 K, Small (less than 1 g) adiabatic calorimetry | 13.06
21.96 K, Small (less than 1 g) adiabatic calorimetry | 15.22
24.23 K, Small (less than 1 g) adiabatic calorimetry | 17.56
25 K, Small (less than 1 g) adiabatic calorimetry | 18.54
26.66 K, Small (less than 1 g) adiabatic calorimetry | 20.67
29.06 K, Small (less than 1 g) adiabatic calorimetry | 23.5
30 K, Small (less than 1 g) adiabatic calorimetry | 24.62
31.53 K, Small (less than 1 g) adiabatic calorimetry | 26.28
34.01 K, Small (less than 1 g) adiabatic calorimetry | 28.63
35 K, Small (less than 1 g) adiabatic calorimetry | 29.56
36.46 K, Small (less than 1 g) adiabatic calorimetry | 30.81
38.9 K, Small (less than 1 g) adiabatic calorimetry | 33.32
40 K, Small (less than 1 g) adiabatic calorimetry | 34.26
41.34 K, Small (less than 1 g) adiabatic calorimetry | 35.6
43.79 K, Small (less than 1 g) adiabatic calorimetry | 38.06
45 K, Small (less than 1 g) adiabatic calorimetry | 39.07
46.25 K, Small (less than 1 g) adiabatic calorimetry | 40.1
48.71 K, Small (less than 1 g) adiabatic calorimetry | 42.56
50 K, Small (less than 1 g) adiabatic calorimetry | 43.9
51.87 K, Small (less than 1 g) adiabatic calorimetry | 45.56
53.99 K, Small (less than 1 g) adiabatic calorimetry | 47.57
56.52 K, Small (less than 1 g) adiabatic calorimetry | 50.12
58.51 K, Small (less than 1 g) adiabatic calorimetry | 51.87
60 K, Small (less than 1 g) adiabatic calorimetry | 52.93
61.71 K, Small (less than 1 g) adiabatic calorimetry | 54.33
63.47 K, Small (less than 1 g) adiabatic calorimetry | 55.42
67.49 K, Small (less than 1 g) adiabatic calorimetry | 58.66
68.37 K, Small (less than 1 g) adiabatic calorimetry | 59.49
70 K, Small (less than 1 g) adiabatic calorimetry | 60.41
70.84 K, Small (less than 1 g) adiabatic calorimetry | 61.18
73.34 K, Small (less than 1 g) adiabatic calorimetry | 62.62
75.82 K, Small (less than 1 g) adiabatic calorimetry | 64.02
78.29 K, Small (less than 1 g) adiabatic calorimetry | 65.34
80 K, Small (less than 1 g) adiabatic calorimetry | 66.38
80.75 K, Small (less than 1 g) adiabatic calorimetry | 66.68
81.73 K, Small (less than 1 g) adiabatic calorimetry | 67.23
83.21 K, Small (less than 1 g) adiabatic calorimetry | 67.91
85.55 K, Small (less than 1 g) adiabatic calorimetry | 69.26
85.67 K, Small (less than 1 g) adiabatic calorimetry | 69.26
88.13 K, Small (less than 1 g) adiabatic calorimetry | 70.96
88.91 K, Small (less than 1 g) adiabatic calorimetry | 71.04
90 K, Small (less than 1 g) adiabatic calorimetry | 71.65
92.27 K, Small (less than 1 g) adiabatic calorimetry | 73.08
95.63 K, Small (less than 1 g) adiabatic calorimetry | 74.82
98.99 K, Small (less than 1 g) adiabatic calorimetry | 76.75
100 K, Small (less than 1 g) adiabatic calorimetry | 77.58
102.34 K, Small (less than 1 g) adiabatic calorimetry | 78.95
105.7 K, Small (less than 1 g) adiabatic calorimetry | 80.67
109.06 K, Small (less than 1 g) adiabatic calorimetry | 82.69
110 K, Small (less than 1 g) adiabatic calorimetry | 82.93
112.41 K, Small (less than 1 g) adiabatic calorimetry | 84.06
115.76 K, Small (less than 1 g) adiabatic calorimetry | 85.56
119.1 K, Small (less than 1 g) adiabatic calorimetry | 86.8
120 K, Small (less than 1 g) adiabatic calorimetry | 87.3
122.44 K, Small (less than 1 g) adiabatic calorimetry | 88.22
125.78 K, Small (less than 1 g) adiabatic calorimetry | 89.96
129.12 K, Small (less than 1 g) adiabatic calorimetry | 91.04
130 K, Small (less than 1 g) adiabatic calorimetry | 91.38
132.46 K, Small (less than 1 g) adiabatic calorimetry | 92.37
135.8 K, Small (less than 1 g) adiabatic calorimetry | 93.29
139.13 K, Small (less than 1 g) adiabatic calorimetry | 94.95
140 K, Small (less than 1 g) adiabatic calorimetry | 95.37
142.46 K, Small (less than 1 g) adiabatic calorimetry | 96.61
145.78 K, Small (less than 1 g) adiabatic calorimetry | 97.86
149.1 K, Small (less than 1 g) adiabatic calorimetry | 99.03
150 K, Small (less than 1 g) adiabatic calorimetry | 99.52
152.42 K, Small (less than 1 g) adiabatic calorimetry | 100.44
155.74 K, Small (less than 1 g) adiabatic calorimetry | 101.69
159.04 K, Small (less than 1 g) adiabatic calorimetry | 103.27
160 K, Small (less than 1 g) adiabatic calorimetry | 103.68
162.35 K, Small (less than 1 g) adiabatic calorimetry | 104.76
165.65 K, Small (less than 1 g) adiabatic calorimetry | 106.01
168.95 K, Small (less than 1 g) adiabatic calorimetry | 107.84
170 K, Small (less than 1 g) adiabatic calorimetry | 107.84
172.25 K, Small (less than 1 g) adiabatic calorimetry | 108.75
175.54 K, Small (less than 1 g) adiabatic calorimetry | 109.83
178.83 K, Small (less than 1 g) adiabatic calorimetry | 111.5
180 K, Small (less than 1 g) adiabatic calorimetry | 111.83
182.12 K, Small (less than 1 g) adiabatic calorimetry | 112.83
185.4 K, Small (less than 1 g) adiabatic calorimetry | 113.82
188.67 K, Small (less than 1 g) adiabatic calorimetry | 115.24
190 K, Small (less than 1 g) adiabatic calorimetry | 115.4
191.94 K, Small (less than 1 g) adiabatic calorimetry | 116.32
195.21 K, Small (less than 1 g) adiabatic calorimetry | 116.98
198.48 K, Small (less than 1 g) adiabatic calorimetry | 118.07
200 K, Small (less than 1 g) adiabatic calorimetry | 118.73
201.74 K, Small (less than 1 g) adiabatic calorimetry | 119.56
205 K, Small (less than 1 g) adiabatic calorimetry | 120.14
208.27 K, Small (less than 1 g) adiabatic calorimetry | 121.06
210 K, Small (less than 1 g) adiabatic calorimetry | 121.64
211.53 K, Small (less than 1 g) adiabatic calorimetry | 122.14
214.79 K, Small (less than 1 g) adiabatic calorimetry | 122.56
218.05 K, Small (less than 1 g) adiabatic calorimetry | 123.64
220 K, Small (less than 1 g) adiabatic calorimetry | 124.38
221.32 K, Small (less than 1 g) adiabatic calorimetry | 124.22
224.58 K, Small (less than 1 g) adiabatic calorimetry | 125.63
227.84 K, Small (less than 1 g) adiabatic calorimetry | 126.38
230 K, Small (less than 1 g) adiabatic calorimetry | 126.88
231.11 K, Small (less than 1 g) adiabatic calorimetry | 127.13
234.38 K, Small (less than 1 g) adiabatic calorimetry | 128.21
237.64 K, Small (less than 1 g) adiabatic calorimetry | 129.12
240 K, Small (less than 1 g) adiabatic calorimetry | 129.37
240.88 K, Small (less than 1 g) adiabatic calorimetry | 129.62
244.15 K, Small (less than 1 g) adiabatic calorimetry | 130.7
247.41 K, Small (less than 1 g) adiabatic calorimetry | 131.53
250 K, Small (less than 1 g) adiabatic calorimetry | 132.03
250.68 K, Small (less than 1 g) adiabatic calorimetry | 132.28
253.95 K, Small (less than 1 g) adiabatic calorimetry | 133.03
257.21 K, Small (less than 1 g) adiabatic calorimetry | 133.7
260 K, Small (less than 1 g) adiabatic calorimetry | 134.94
260.47 K, Small (less than 1 g) adiabatic calorimetry | 135.11
263.74 K, Small (less than 1 g) adiabatic calorimetry | 135.94
266.99 K, Small (less than 1 g) adiabatic calorimetry | 137.19
270 K, Small (less than 1 g) adiabatic calorimetry | 138.19
270.25 K, Small (less than 1 g) adiabatic calorimetry | 138.69
273.15 K, Small (less than 1 g) adiabatic calorimetry | 139.27
273.51 K, Small (less than 1 g) adiabatic calorimetry | 139.52
276.77 K, Small (less than 1 g) adiabatic calorimetry | 140.43
280 K, Small (less than 1 g) adiabatic calorimetry | 141.68
280.02 K, Small (less than 1 g) adiabatic calorimetry | 141.6
283.26 K, Small (less than 1 g) adiabatic calorimetry | 142.68
286.51 K, Small (less than 1 g) adiabatic calorimetry | 143.84
289.74 K, Small (less than 1 g) adiabatic calorimetry | 145
290 K, Small (less than 1 g) adiabatic calorimetry | 145.42
292.94 K, Small (less than 1 g) adiabatic calorimetry | 146.5
296.16 K, Small (less than 1 g) adiabatic calorimetry | 147.25
298.15 K, Small (less than 1 g) adiabatic calorimetry | 148.41
299.38 K, Small (less than 1 g) adiabatic calorimetry | 148.58
300 K, Small (less than 1 g) adiabatic calorimetry | 149.08
302.59 K, Small (less than 1 g) adiabatic calorimetry | 150.41
305.8 K, Small (less than 1 g) adiabatic calorimetry | 151.41
309.01 K, Small (less than 1 g) adiabatic calorimetry | 152.57
310 K, Small (less than 1 g) adiabatic calorimetry | 152.65
312.23 K, Small (less than 1 g) adiabatic calorimetry | 153.82
315.44 K, Small (less than 1 g) adiabatic calorimetry | 154.82
318.66 K, Small (less than 1 g) adiabatic calorimetry | 155.48
320 K, Small (less than 1 g) adiabatic calorimetry | 155.9
320.8 K, DSC | 155.48
321.8 K, DSC | 156.31
321.9 K, Small (less than 1 g) adiabatic calorimetry | 156.23
322.8 K, DSC | 156.31
323.8 K, DSC | 156.31
324.8 K, DSC | 157.14
325.15 K, Small (less than 1 g) adiabatic calorimetry | 157.39
325.8 K, DSC | 157.14
326.8 K, DSC | 157.97
327.8 K, DSC | 157.97
328.41 K, Small (less than 1 g) adiabatic calorimetry | 158.22
328.8 K, DSC | 158.81
329.8 K, DSC | 158.81
330 K, Small (less than 1 g) adiabatic calorimetry | 158.89
330.8 K, DSC | 159.64
331.69 K, Small (less than 1 g) adiabatic calorimetry | 159.39
331.8 K, DSC | 159.64
332.8 K, DSC | 159.64
333.8 K, DSC | 160.47
334.8 K, DSC | 160.47
334.97 K, Small (less than 1 g) adiabatic calorimetry | 160.3
335.8 K, DSC | 161.3
336.8 K, DSC | 161.3
337.8 K, DSC | 161.3
338.28 K, Small (less than 1 g) adiabatic calorimetry | 161.22
338.8 K, DSC | 162.13
339.8 K, DSC | 162.13
340 K, Small (less than 1 g) adiabatic calorimetry | 161.97
340.8 K, DSC | 162.13
341.58 K, Small (less than 1 g) adiabatic calorimetry | 162.8
341.8 K, DSC | 162.96
342.8 K, DSC | 162.96
343.8 K, DSC | 162.96
